In patent US8372876B2, “Method for improving memory in mammals” (The University of Houston System, priority 2007, dated 2013):
“Also recorded” adds a separate entry of the source.

Assays:
[1] = molecular target: T1, MT2 than for MT1 subtypes of melatonin receptors (Homo sapiens, UniProt P49286); conditions: MT2 versus MT1 selectivity; cited from earlier work
T1 sequence (P49286 1-362): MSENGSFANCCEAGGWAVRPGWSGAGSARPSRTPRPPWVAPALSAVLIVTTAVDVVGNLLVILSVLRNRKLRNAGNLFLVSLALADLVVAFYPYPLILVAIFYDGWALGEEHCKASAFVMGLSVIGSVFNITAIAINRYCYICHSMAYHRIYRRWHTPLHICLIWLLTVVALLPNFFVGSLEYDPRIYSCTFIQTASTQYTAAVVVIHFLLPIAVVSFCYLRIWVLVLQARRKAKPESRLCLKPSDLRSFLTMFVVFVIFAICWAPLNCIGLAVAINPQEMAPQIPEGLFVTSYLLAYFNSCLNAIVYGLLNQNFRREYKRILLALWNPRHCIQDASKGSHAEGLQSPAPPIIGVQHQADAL

zebrafish embryos = conditions: cited from earlier work
C3H/HeN mice = conditions: more pronounced effect at midnight than midday; cited from earlier work
Zebrafish (D. rerio) = assay: active-avoidance conditioning in a shuttle box: learning (trials to criteria) and 24 h retention score; assay type: in vivo
Experimental: Zebrafish (D. rerio) were bred, raised and maintained by the experimenter at the University of Houston Animals Facility. Adult zebrafish are maintained in 2-liter modular aquaria (Marine Biotech) with continuous water exchange at 26-28° C. under 14:10 hours light:dark cycle. Eggs and larvae are maintained in beakers with daily water changes, under the same light:dark cycle and similar temperatures. Larval fish are fed with filtered paramecium. All animals, juvenile (>15 days) and adults are fed three times a day with live brine shrimp or flake. The *AB strain was originally obtained from the University of Oregon. All protocols were approved by the University of Houston Institutional Animal Care Use Committee. Zebrafish are trained on an active-avoidance conditioning paradigm using a modified shuttle box. Zebrafish must cross a hurdle to avoid electric shocks (3V; unconditioned stimulus) administered via electrodes 10 seconds after the onset of the conditioned stimulus which was a dim red light. Dim red lights are placed at the extremity of each compartment of the shuttle box. The light signal was kept on during each cycle lasting for 20 seconds in one compartment; subsequently, the conditioned and unconditioned stimuli changed to the other side of the shuttle box. Zebrafish must learn to escape the dark compartment and maintain in the compartment having the light stimulus on for the remaining trial period. Animals that respond correctly to the light signals in eight out of ten consecutive trials during the training period are designated learners. Training was terminated once Zebrafish achieve the learning criteria (i.e. swimming the compartment where the stimulus light was on and remain there until the light was switched off). […] Animals are tested 24 hours later under identical conditions to test for retention of the learned task. To quantitatively evaluate the ability of each learner to recall the active avoidance conditioning paradigm, a retention score was calculated using the algorithm of Piront and Schmidt [formula] The number of trials required to reach the learning criteria during the test session was subtracted from number of trials required to reach the learning criteria in the training session, divided by the number of trials in the test plus training sessions. Retention scores range from 0 to 1.0. […] Melatonin Blocks Long-Term Memory Formation During the Subjective Day This melatonin effect was tested by taking animals originally under 14:10 hours light:dark cycles and exposing them to constant darkness for 4 days. On the 3rd day of constant darkness and one hour prior to training at CT7 (corresponds to 4 pm) animals were bathed in increasing concentrations of melatonin (1 μM, 10 μM, 50 μM and 100 μM). Animals were then trained at CT8 for active avoidance conditioning and tested 24 hours later on the 4th day of constant darkness at CT8 for long-term memory formation. […] To test whether melatonin blocks long-term memory formation via melatonin receptor mediated signaling pathway, the following experiments were performed. Animals in their original 14:10 hours light:dark cycles were set under free running conditions of constant darkness and temperature (25° C.) for 4 days. […] Treatments comprising of melatonin and either of its antagonists (luzindole or K-185) do improve the retention score, going from 0.1 with melatonin alone to about 0.4 in the presence of a mixture of melatonin and luzindole and to about 0.3 in the presence of a mixture of melatonin and K-185. […] This means that the inhibitory action of melatonin was mediated via a melatonin receptor-signaling pathway. […] This effect was tested by blocking night time melatonin receptor mediated signaling pathways with increased concentrations of melatonin receptor antagonist, such as luzindole. Animals in 14:10 hours light:dark cycles were exposed to constant darkness and temperature (25° C.) for 4 days. […]

## CCCC(=O)NCCc1c2n(c3ccc(OC)cc13)CCCc1ccccc1-2 [K-185, N-butanoyl-2-(5,6,7-trihydro-11-methoxy-benzo[3,4]cyclohept[2,1-a]indol-13-yl) ethanamine]
[1]
  higher affinity for MT2 than for MT1: > 140 fold
Zebrafish embryos
  antagonism of the effect of melatonin on zebrafish development: blocking the effect of melatonin on zebrafish development

## CC(=O)NCCc1c(Cc2ccccc2)[nH]c2ccccc12 [luzindole, N-Acetyl-2-benzyltryptamine]
C3H/HeN mice
  duration of immobility during swimming: decreases the duration of immobility during swimming
Zebrafish (D. rerio); 0.5 μM luzindole, 1 h at CT15, trained CT16, tested 24 h later (subjective night), FIG. 4b
  retention score: less than 0.1
Zebrafish (D. rerio); 1 μM luzindole, 1 h at CT15, trained CT16, tested 24 h later (subjective night), FIG. 4b
  retention score: 0.25
Zebrafish (D. rerio); luzindole at increasing concentration, 1 h at CT15, trained CT16 (subjective night), constant darkness, FIG. 4a
  number of trials to reach learning criteria: No significant difference; also recorded: remains the same

## COc1ccc2[nH]cc(CCNC(C)=O)c2c1 [melatonin, 5-OCH3 N-acetyltryptamine]
Zebrafish (D. rerio); 100 μM melatonin, 1 h at CT7, trained CT8, tested 24 h later (subjective day), FIG. 2b
  retention score: significantly reduced
Zebrafish (D. rerio); low concentrations of melatonin, 1 h at CT7, tested 24 h after training at CT8
  long-term memory formation (retention score): do not significantly block long-term memory formation
Zebrafish (D. rerio); melatonin concentration over 50 μM, 1 h at CT7, tested 24 h after training at CT8 (subjective day)
  retention score: around 0.1
